# According to patent publication US20250179125A1, “Alpha-sheet Polypeptides and Their Use” (University of Washington, priority 2021, published 2025):
# Bridge positions count the residues as written; N and C are the ends. Square brackets hold non-standard residues; d marks the D form. Peptide text beside a SMILES is read from it. I, II: the chains in the order shown.
# What was measured:
# Aβ42 = target: T1, Aβ42 (Homo sapiens, UniProt P05067); format: biochemical; details: 7500.0
# T1 construct: Remove Aβ42 film(s) from −80° C
# T1 sequence (P05067 672-713 limits assumed): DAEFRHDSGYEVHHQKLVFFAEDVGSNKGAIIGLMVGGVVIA
# Method: Peptides were co-incubated with 75 μM Aβ in PBS aggregation buffer and monitored for β-sheet formation via ThT fluorescence over time. In each case, AB alone (ie Aβ aggregating in PBS without any inhibitor) was run as the standard control and used for calculating % inhibition by the following equation:
# Importantly, each value had its corresponding ‘blank’ subtracted from the raw data, ie: End Inhibitor value=Raw value at the end of the assay-value for peptide alone in PBS at the given concentration.
# The ‘blank’ values never exceeded more than 2× starting Aβ value to ensure that overcorrection is not the source of efficacy in data processing-end Aβ value was on average 20× starting Aβ value. Peptide concentration was varied while Aβ concentration remained fixed to investigate the potency of the designs at equal- and sub-stoichiometric ratios of AP: Aβ (ratios investigated include 1:1, 1:10, and 1:100). […]
# Inhibition of Abeta aggregation was assessed in our standard ThT assay and the results can be compared to those in the table comparing different peptides in their monomeric and dimeric forms with 10-fold excess of Abeta.
# Aβ aggregation and fibril formation, as well as inhibition experiments with α-sheet peptides, were monitored via ThT fluorescence according to the procedure, as follows. […]
# [1] = system: E. coli UTI89 WT biofilms; test: Biofilm ThT assay in live E. coli UTI89 WT; format: cell-based; details: 48 h growth, dimers 1-8 μM, monomers double
# Method: FIG. 2. Protocol to test inhibition of biofilm amyloid formation in live E. coli. Amyloid formation is assessed through a ThT assay like that used with Abeta and IAPP above. In addition, inhibition of amyloid disrupts the biofilm, leading to an increase in planktonic free-floating bacteria cells, which are then susceptible to antibiotics.
# (§1) FIG. 4(a-b). Inhibition of amyloid formation by alpha-sheet designs in live E. coli clinical isolates. […] The concentrations are provided for the dimers, but the P1 and AP5 monomers were double that concentration to provide the same number of monomer units for comparison of the designs (ex. where it says 5 μM applied AP5, it was actually 10 μM). cNFU=corrected, normalized fluorescence units, where normalized signals were corrected by the nonspecific ThT fluorescence of E. coli UTI89 ΔcsgA biofilms. (b) Synthetic α-sheet peptides AP193 and AP195 decreased the ThT fluorescence of E. coli GERB319 biofilms, a clinical UTI isolate with resistance to gentamicin and ciprofloxacin (the dimeric peptides were added at 8 μM and AP5 and P1 were 16 μM to provide the same monomer equivalents). The unstructured control peptide P1 had no effect when applied at the same concentration. […]
# Overnight cultures were grown in LB medium for ˜18 h. […] Peptide stocks were dissolved in water and concentrations were determined by Nanodrop™ (Thermo Scientific; Waltham, MA). […]
# E. coli GERB319 biofilms = test: Biofilm ThT assay in clinical isolate E. coli GERB319; format: cell-based; details: dimeric peptides 8 μM, AP5 and P1 16 μM
# Method: as §1
# Overnight cultures were grown in LB medium for ˜18 h. […] Peptide stocks were dissolved in water and concentrations were determined by Nanodrop™ (Thermo Scientific; Waltham, MA). […] Planktonic cells were spun down and resuspended in PBS, and the optical density of both planktonic and rinse samples was determined at 600 nm to estimate cell densities. […] 100 μL of each biofilm suspension was then transferred to a black-walled, clear-bottom 96 well plate for measurements in a plate reader (PerkinElmer; Waltham, MA). […]
# [2] = system: curli amyloid fibril formation in live E. coli; test: TEM of curli amyloid fibril formation in E. coli biofilms; format: cell-based; details: equimolar concentrations
# Method: FIG. 3(a-c).TEM images reveal extensive curli amyloid fibril formation in (a) peptide-free biofilms and biofilms grown in the presence of (c) P1, but not those grown in the presence of (b) AP195 dimer (Scale bars=2 μm). P1 and AP195 were added at equimolar concentrations. AP195 is an α-sheet peptide and P1 is a random coil control.
# The random coil peptide control (P1) had no effect.
Molecule,% Inhibition 1:10 (AP peptide:Abeta42) (Aβ42),"amyloid content in biofilms, ThT fluorescence (cNFU) [1]",ThT fluorescence of biofilms (E. coli GERB319 biofilms),curli amyloid fibril formation (TEM) [2]
"CSCC[C@H](NC(=O)[C@@H](CCC(=O)O)NC(=O)CNC(=O)[C@@H](CCCNC(=N)N)NC(C)=O)C(=O)N[C@H](CC(N)=O)C(=O)N[C@@H](CC(C)C)C(=O)N[C@H](CO)C(=O)N[C@@H](Cc1c[nH]c2ccccc12)C(=O)N[C@H](CCSC)C(=O)N[C@H](CC(N)=O)C(=O)N[C@H](CCC(=O)O)C(=O)N[C@H](Cc1ccc(O)cc1)C(=O)N[C@H](Cc1ccc(O)cc1)C(=O)NCC(=O)N[C@H](Cc1c[nH]c2ccccc12)C(=O)N[C@H](C(=O)N[C@H](CCSC)C(=O)N[C@@H](CC(N)=O)C(=O)N[C@H](CCSC)C(=O)N[C@@H](CCCCN)C(=O)N[C@H](CS)C(=O)NCC(=O)N[C@H](CCCNC(=N)N)C(N)=O)[C@@H](C)O [AP527m, Ac-rGeMnLsWmneyyGwTmNmKcGr-NH2] (Ac-[dR]G[dE]M[dN]L[dS]W[dM][dN][dE][dY][dY]G[dW]T[dM]N[dM]K[dC]G[dR]-NH2)",14%,,,
"I: Ac-RGN[dW]N[dE]S[dK]MNEYSGW[dM]L[dM]C[dT]MGR-NH2 / II: Ac-RGN[dW]N[dE]S[dK]MNEYSGW[dM]L[dM]C[dT]MGR-NH2 (disulfide I:19-II:19) [AP500d, Ac-RGNwNeSkMNEYSGWmLmCtMGR-NH2]",,dose-dependent reduction,significant decrease,inhibition of fibril formation
"I: Ac-[dR]G[dE]M[dN]L[dS]W[dM][dN][dE][dY][dY]G[dW]T[dM]N[dM]K[dC]G[dR]-NH2 / II: Ac-[dR]G[dE]M[dN]L[dS]W[dM][dN][dE][dY][dY]G[dW]T[dM]N[dM]K[dC]G[dR]-NH2 (disulfide I:21-II:21) [AP527d, Ac-rGeMnLsWmneyyGwTmNmKcGr-NH2]",96%,,,
